Measurements as given in US20220354825A1, “PHARMACEUTICAL COMPOSITION FOR PREVENTION OR TREATMENT OF INFLAMMATORY DISEASES COMPRISING NAPHTHOQUINONE DERIVATIVE” (LMITO THERAPEUTICS INC., priority 2019, published 2022).

What was measured:
[1] = system: primary bone marrow-derived macrophages (BMDMs); test: OCR (oxygen consumption rate) measurement, Seahorse XF24; format: cell-based, C57BL/6 mouse; conditions: macrophages after treatment of LPS and ATP
Description: The primary bone marrow-derived macrophages (BMDMs) isolated from C57BL/6 mouse were incubated in DMEM medium involving macrophage colony-stimulating factor (M-CSF; R&D Systems, 416-ML) during 3 to 5 days. OCR was measured using Seahorse XF24 Extracellular Flux Analyzer in isolated bone marrow-derived macrophages.

NQO1 = NQO1 (Homo sapiens, UniProt P15559); test: In vitro NQO1 enzyme activity assay (cytochrome C reduction); format: biochemical; conditions: NQO1 2 ng
Sequence of NQO1 (P15559 whole entry, species assumed): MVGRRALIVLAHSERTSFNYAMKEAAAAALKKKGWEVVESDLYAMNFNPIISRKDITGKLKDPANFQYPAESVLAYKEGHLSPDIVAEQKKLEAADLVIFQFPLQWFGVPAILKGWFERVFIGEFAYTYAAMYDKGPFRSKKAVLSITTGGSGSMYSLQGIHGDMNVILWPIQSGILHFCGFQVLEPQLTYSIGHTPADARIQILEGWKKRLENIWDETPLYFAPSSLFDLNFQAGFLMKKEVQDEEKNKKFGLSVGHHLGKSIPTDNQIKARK
Description: In order to evaluate the enzymatic activities of compounds on NQO1, the experiments were performed as follows:
A compound to measure NQO1 enzyme activity was dissolved in DMSO to prepare a 10 mM stock solution, which was then diluted with DMSO to prepare a working solution at a concentration of 250 μM. For an enzyme reaction solution, 50 μL of 1.54 mM cytochrome C solution was added to 900 μL of 50 mM Tris-HCl (pH 7.5) solution containing 0.14% BSA, and then the prepared working solution at 250 μM was added. After adding 20 μL of 100 ng/ml NQO1 protein, […] solution was added so as to adjust the total volume to 1 mL, and then the change of absorbance was measured at 550 nm for 10 minutes. The change of absorbance was measured at 550 nm for 10 minutes using 1 mL cuvette. The reaction rate was observed through the increase in absorbance as cytochrome C was reduced at 550 nm for 10 minutes, to obtain an absorbance value, and the activity for NQO1 was measured as the reduced amount of cytochrome C (nmol reduced cytochrome C/min/μg NQO1 protein).
Absorption coefficient of Cytochrome C: 21.1 (μmol/mL)-1 cm^−1
Equipment=Cary 100 UV-Vis Spectrophotometer

[2] = system: primary bone marrow-derived macrophages (BMDMs); test: Mitochondrial reactive oxygen species measurement (MitoSox, FACS); format: cell-based, C57BL/6 mouse; conditions: LPS/ATP + 1, 5, 10 μM compound
Description: The primary bone marrow-derived macrophages (BMDMs) isolated from C57BL/6 mouse were incubated in DMEM medium involving macrophage colony-stimulating factor (M-CSF; R&D Systems, 416-ML) during 3 to 5 days. Isolated BMDMs were stained by 1 μM MitoSox (Molecular Probes M36008) for 15 min. After washing the cells into PBS and collecting the cells, mitochondrial reactive oxygen species was measured by FACS.
FIGS. 11 and 12 show mitochondrial reactive oxygen species changes in the macrophage when treated with compounds 6 and 27, respectively (in order from left in the figure: Untreatment, LPS/ATP, LPS/ATP+1 μM compound, LPS/ATP+5 μM compound, and LPS/ATP+10 μM compound).

[3] = system: primary bone marrow-derived macrophages (BMDMs); test: ATP measurement in LPS-activated macrophages; format: cell-based, C57BL/6 mouse; conditions: LPS + 1, 5, 10 μM compound
Description: The primary bone marrow-derived macrophages (BMDMs) isolated from C57BL/6 mouse were incubated in DMEM medium involving macrophage colony-stimulating factor (M-CSF; R&D Systems, 416-ML) during 3 to 5 days. ATP content in the cell was measured through using ATP colorimetric/fluorometric kit after activation of macrophages by treatment of 100 ng/mL LPS in DMEM medium including […]. All assays were performed according to the manufacturer's product manual.
FIGS. 13 to 17 show the measurement of ATP amounts in the macrophage when treated with Compounds 6, 16, 17, 22 and 27 respectively (in order from left in the figure: Untreatment, LPS/ATP, LPS/ATP+1 μM compound, LPS/ATP+5 μM compound, and LPS/ATP+10 μM compound).

[4] = system: primary bone marrow-derived macrophages (BMDMs); test: NAD+/NADH measurement in macrophages after LPS/ATP; format: cell-based, C57BL/6 mouse; conditions: LPS/ATP + 1, 5, 10 μM compound
Description: (§1) The primary bone marrow-derived macrophages (BMDMs) isolated from C57BL/6 mouse were incubated in DMEM medium involving macrophage colony-stimulating factor (M-CSF; R&D Systems, 416-ML) during 3 to 5 days. NAD^+ production and NAD^+/NADH ratio was measured in isolated BMDMs through using NAD/NADH Assay Kit(ab65348) supplied by Abcam company. All assays were performed according to the manufacturer's product manual.
FIGS. 6 to 10 show NAD^+/NADH ratio changes in the macrophage when treated with compounds 6, 16, 17, and 27 respectively (in order from left in the figure: Untreatment, LPS/ATP, LPS/ATP+1 μM compound, LPS/ATP+5 μM compound, and LPS/ATP+10 μM).

[5] = system: DSS-induced acute colitis mouse model; test: Efficacy in ulcerative colitis mouse model (DSS-induced acute colitis); format: in vivo, C57BL/6 female mouse; conditions: 5% DSS for 6 days
Description: DSS-induced acute colitis mouse model was prepared using 6-week-old C57BL/6 female mouse in the following method from Opal S M et al., Jama., 309(11):1154-1162(2013) and Hotchkiss R S et al., Journal of immunology., 176(9):5471-5477(2006).
The clinical score in colitis were measured daily for body weight, rectal bleeding, total bleeding loss, and fecal concentration during colitis induction.
For immunohistochemistry of tissue section, mouse spleen, lung and colon were fixed using 10% formalin and embedded in paraffin. Paraffin sections were cut to a thickness of 4 μm, and H&E(hematoxylin and eosin) staining was performed. The histopathological score was measured in accordance with the criteria described in Osuchowski M F, et al., Journal of Immunology, 177(3):1967-74(2006); and Liu W, et al., Cell Research, 25(6): 691-706(2015).
The sandwich ELISAs and MPO assay were performed according to conventional methods in this field. TNF-α, IL-6, IL-1β, IL-18 ELISA(sandwich ELISAs) were performed using BD OptEIA ELISA Kit and MPO assay was performed using MPO Activity assay kit(ab105136) of Abcam company.
The data obtained from independent experiment (means±SD) was analyzed by using two-tailed Student's t-test. The differences were considered significant in p<0.05. For survival comparison, the results were graphically described and analyzed according to kaplan-Meier survival analysis, that is, the product-limit method, using log-rank(Mantel-Cox) tests (Prism, version 5.0, GraphPad Software).

[6] = system: primary bone marrow-derived macrophages (BMDMs); test: NAD+ measurement in macrophages after LPS/ATP; format: cell-based, C57BL/6 mouse; conditions: LPS/ATP + 1, 5, 10 μM compound
Description: as §1, with “were” for “was”
FIGS. 1 to 5 show NAD^+ changes in the macrophage when treated with compounds 6, 16, 17, 22 and 27 respectively (in order from left in the figure: Untreatment, LPS/ATP, LPS/ATP+1 μM compound, LPS/ATP+5 μM compound, and LPS/ATP+10 μM compound).

[7] = colon tissue homogenate, treated during 20 days
[8] = treated during 10 days, vs non-treated mouse

CC(C)c1nc2c([nH]1)C(=O)C(=O)c1ccccc1-2 [Compound 27]
overall mitochondrial OCR [1]: increased | NQO1 Activity (NQO1; Compound 0.2 μM): 2269 nmol of reduced Cytochrome C/min/μg NQO1 Protein | mitochondrial reactive oxygen species amounts [2]: decreased in dose-dependent manner | ATP amounts [3]: increased in dose-dependent manner | NAD+/NADH ratio [4]: increased in dose-dependent manner | MPO activity [5, 7]: decreased | cytokine expressions (TNF-α, IL-6, IL-1β and IL-18, ELISA) [5, 7]: decreased | expressions of sirtuin 1 and sirtuin 7 [5, 7]: significantly increased | histological finding of colon tissue (immunohistochemistry, histological score, H&E) ([5]; treated during 7 days, vs non-treated colon tissue): significantly improved than non-treated colon tissue | colitis clinic scores (body weight, stool consistency, bleeding combined) [5, 8]: significantly ameliorated compared with non-treated mouse | degree of body weight loss [5, 8]: significantly slower than non-treated mouse | survival rates ([5]; treated during 20 days, vs non-treated mouse): higher than non-treated mouse | NAD+ production [6]: increased in dose-dependent manner

COc1nn(-c2ccccc2)c2c1C(=O)C(=O)c1cc(F)ccc1-2 [Compound 22]
NQO1 Activity (NQO1; Compound 0.2 μM): 6978 nmol of reduced Cytochrome C/min/μg NQO1 Protein | NAD+/NADH ratio [4]: increased in dose-dependent manner | NAD+ production [6]: increased in dose-dependent manner

CC(C)Oc1nn(-c2ccccc2)c2c1C(=O)C(=O)c1ccccc1-2 [Compound 2]
NQO1 Activity (NQO1; Compound 0.2 μM): 3531 nmol of reduced Cytochrome C/min/μg NQO1 Protein

COc1cn(-c2ccccc2)c2c1C(=O)C(=O)c1cc(Br)ccc1-2 [Compound 25]
NQO1 Activity (NQO1; Compound 0.2 μM): 1676 nmol of reduced Cytochrome C/min/μg NQO1 Protein

COc1nn(-c2ccc(F)cc2)c2c1C(=O)C(=O)c1ccccc1-2 [Compound 19]
NQO1 Activity (NQO1; Compound 0.2 μM): 4303 nmol of reduced Cytochrome C/min/μg NQO1 Protein

O=C1C(=O)c2c(n(-c3ccccc3)[nH]c2=O)-c2ccccc21 [Compound 1]
NQO1 Activity (NQO1; Compound 5 μM): 180 nmol of reduced Cytochrome C/min/μg NQO1 Protein

Cn1c(=O)c2c(n1-c1ccccc1)-c1ccc(F)cc1C(=O)C2=O [Compound 21]
NQO1 Activity (NQO1; Compound 0.2 μM): 1426 nmol of reduced Cytochrome C/min/μg NQO1 Protein

CC(C)n1c2c(c(=O)n1C)C(=O)C(=O)c1ccccc1-2 [Compound 16]
NQO1 Activity (NQO1; Compound 0.2 μM): 4441 nmol of reduced Cytochrome C/min/μg NQO1 Protein | NAD+/NADH ratio [4]: increased in dose-dependent manner | NAD+ production [6]: increased in dose-dependent manner

CC(C)n1c(=O)c2c(n1C)-c1ccccc1C(=O)C2=O [Compound 3]
NQO1 Activity (NQO1; Compound 5 μM): 3066 nmol of reduced Cytochrome C/min/μg NQO1 Protein

CC(C)n1c(=O)c2c(n1-c1ccccc1)-c1ccccc1C(=O)C2=O [Compound 13]
NQO1 Activity (NQO1; Compound 0.2 μM): 2137 nmol of reduced Cytochrome C/min/μg NQO1 Protein

COc1nn(-c2ccc(C(F)(F)F)cc2)c2c1C(=O)C(=O)c1ccccc1-2 [Compound 18]
NQO1 Activity (NQO1; Compound 0.2 μM): 4232 nmol of reduced Cytochrome C/min/μg NQO1 Protein

COc1cn(-c2ccccc2)c2c1C(=O)C(=O)c1cc([N+](=O)[O-])ccc1-2 [Compound 23]
NQO1 Activity (NQO1; Compound 0.2 μM): 456 nmol of reduced Cytochrome C/min/μg NQO1 Protein

Cn1c(=O)c2c(n1-c1ccccc1)-c1ccccc1C(=O)C2=O [Compound 5]
NQO1 Activity (NQO1; Compound 5 μM): 2602 nmol of reduced Cytochrome C/min/μg NQO1 Protein

Cn1c2c(c(=O)n1-c1ccccc1)C(=O)C(=O)c1ccccc1-2 [Compound 20]
NQO1 Activity (NQO1; Compound 0.2 μM): 568 nmol of reduced Cytochrome C/min/μg NQO1 Protein

CC(C)COc1nn(-c2ccccc2)c2c1C(=O)C(=O)c1ccccc1-2 [Compound 10]
NQO1 Activity (NQO1; Compound 0.2 μM): 3455 nmol of reduced Cytochrome C/min/μg NQO1 Protein

CCOc1nn(-c2ccccc2)c2c1C(=O)C(=O)c1ccccc1-2 [Compound 8]
NQO1 Activity (NQO1; Compound 0.2 μM): 3768 nmol of reduced Cytochrome C/min/μg NQO1 Protein

CC(C)CCOc1nn(-c2ccccc2)c2c1C(=O)C(=O)c1ccccc1-2 [Compound 12]
NQO1 Activity (NQO1; Compound 0.2 μM): 2981 nmol of reduced Cytochrome C/min/μg NQO1 Protein

CC(C)Cn1c(=O)c2c(n1-c1ccccc1)-c1ccccc1C(=O)C2=O [Compound 9]
NQO1 Activity (NQO1; Compound 0.2 μM): 2474 nmol of reduced Cytochrome C/min/μg NQO1 Protein

COc1nn(-c2ccccc2)c2c1C(=O)C(=O)c1cc(N)ccc1-2 [Compound 24]
NQO1 Activity (NQO1; Compound 0.2 μM): 4336 nmol of reduced Cytochrome C/min/μg NQO1 Protein

COc1nn(C(C)C)c2c1C(=O)C(=O)c1ccccc1-2 [Compound 17]
NQO1 Activity (NQO1; Compound 0.2 μM): 5843 nmol of reduced Cytochrome C/min/μg NQO1 Protein | NAD+/NADH ratio [4]: increased in dose-dependent manner | NAD+ production [6]: increased in dose-dependent manner

CCn1c(=O)c2c(n1-c1ccccc1)-c1ccccc1C(=O)C2=O [Compound 7]
NQO1 Activity (NQO1; Compound 0.2 μM): 2246 nmol of reduced Cytochrome C/min/μg NQO1 Protein

CC(C)CCn1c(=O)c2c(n1-c1ccccc1)-c1ccccc1C(=O)C2=O [Compound 11]
NQO1 Activity (NQO1; Compound 0.2 μM): 2839 nmol of reduced Cytochrome C/min/μg NQO1 Protein
